Data as given in PMC9250534, “Synthesis and direct assay of large macrocycle diversities by combinatorial late-stage modification at picomole scale” (Nature Communications, 2022).
Numbered stars: 1 amine (or outer) side, 2 acyl side, 3 side chain; on linkers, the order of the positions; unused ones are H or OH. Bridge positions count the residues as written; N and C are the ends. Square brackets hold non-standard residues; d marks the D form. Peptide text beside a SMILES is read from it. * marks the point of attachment. 2Thenoyl(5-Cl) = O=C(c1ccc(Cl)s1)*; Benzoyl(4-Cl) = O=C(c1ccc(Cl)cc1)*; Cysteamide = C(CS[*:3])N[*:1]; X1 = O=C(/C=C/c1ccccc1)*; Api = NC1(C(=O)O)CCNCC1; Dap = NC[CH](N)C(=O)O; Mpa = O=C(O)CCS

Target: MDM2 (Homo sapiens, UniProt Q00987)
Sequence (Q00987 whole entry): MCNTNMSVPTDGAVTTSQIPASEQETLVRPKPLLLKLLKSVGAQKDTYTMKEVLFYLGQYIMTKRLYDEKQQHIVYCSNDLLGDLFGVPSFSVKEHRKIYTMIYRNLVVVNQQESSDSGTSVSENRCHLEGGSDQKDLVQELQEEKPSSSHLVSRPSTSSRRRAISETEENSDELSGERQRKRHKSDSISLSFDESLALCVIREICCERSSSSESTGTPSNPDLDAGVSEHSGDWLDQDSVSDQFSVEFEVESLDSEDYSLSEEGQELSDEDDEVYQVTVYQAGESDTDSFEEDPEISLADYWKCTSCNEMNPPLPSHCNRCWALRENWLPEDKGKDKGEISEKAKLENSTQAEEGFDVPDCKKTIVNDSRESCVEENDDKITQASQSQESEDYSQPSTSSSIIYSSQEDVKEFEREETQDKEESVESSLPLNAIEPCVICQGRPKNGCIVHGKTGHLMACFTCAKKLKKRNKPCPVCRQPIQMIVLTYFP
Test: MDM2 binding screen: displacement of fluorescent p53 peptide probe FP53 (fluorescence polarization)
Conditions: crude macrocycle reactions; for fraction fluorescent probe displaced, Screen: initial screen
Summary of the method: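 Single-point screen: one fluorescence anisotropy reading at 25 °C (485 nm excitation, 535 nm emission) per macrocycle. Crude macrocycle reactions, final 10 µM, were scored for displacing the fluorescent p53 peptide from human MDM2.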

Structure (SMILES) | fraction fluorescent probe displaced, Screen (Acid 14) | fraction fluorescent probe displaced, Replicate (Acid 14) | fraction fluorescent probe displaced, Screen (Acid 25) | fraction fluorescent probe displaced, Replicate (Acid 25) | fraction fluorescent probe displaced, Screen (Acid 91) | fraction fluorescent probe displaced, Replicate (Acid 91)
O=C1CCSSCCNC(=O)C(CNC(=O)c2ccc(Cl)s2)NC(=O)C2CCCN2C(=O)C(Cc2ccccc2)N1 (stereo not shown) [X F B1 D3 Acid 14] ([Mpa]FP[Dap](2Thenoyl(5-Cl))-Cysteamide; disulfide 1-C; configuration not given here) | 0.17 | 0.07 |  |  |  | 
O=C1CCSSCCNC(=O)C(CNC(=O)c2ccc(Cl)cc2)NC(=O)C2CCCN2C(=O)C(Cc2ccccc2)N1 (stereo not shown) [X F B1 D3 Acid 25] ([Mpa]FP[Dap](Benzoyl(4-Cl))-Cysteamide; disulfide 1-C; configuration not given here) |  |  | 0.12 | 0.22 |  | 
O=C(/C=C/c1ccccc1)NC[C@@H]1NC(=O)[C@@H]2CCCN2C(=O)[C@H](Cc2ccccc2)NC(=O)CCSSCCNC1=O [X F B1 D3 Acid 91] ([Mpa]FP[Dap](X1)-Cysteamide; disulfide 1-C) |  |  |  |  | 0.08 | 0.04
O=C1CCSSCCNC(=O)C2(CCN(C(=O)/C=C/c3ccccc3)CC2)NC(=O)[C@@H]2CCCN2C(=O)[C@H](Cc2ccccc2)N1 [X F B1 D6 Acid 91] ([Mpa]FP[Api](X1)-Cysteamide; disulfide 1-C) |  |  |  |  | -0.05 | 0.0168
O=C1CCNC(=O)[C@H](Cc2ccccc2)NC(=O)CCSSCCNC(=O)[C@H](CNC(=O)c2ccc(Cl)s2)N1 [X F B2 D3 Acid 14] | 0.14 | 0.12 |  |  |  | 
O=C(/C=C/c1ccccc1)NC[C@@H]1NC(=O)CCNC(=O)[C@H](Cc2ccccc2)NC(=O)CCSSCCNC1=O [X F B2 D3 Acid 91] |  |  |  |  | 0.03 | 0.04
O=C1CCSSCCNC(=O)[C@@H]2C[C@H](NC(=O)c3ccc(Cl)s3)CN2C(=O)CCNC(=O)[C@H](Cc2ccccc2)N1 [X F B2 D5 Acid 14] | 0.08 | 0.07 |  |  |  | 
O=C1CCSSCCNC(=O)C2CN(C(=O)C=Cc3ccccc3)CCN2C(=O)CCNC(=O)C(Cc2ccccc2)N1 (stereo not shown) [X F B2 D7 Acid 91] |  |  |  |  | 0.03 | 0.04
O=C1CCSSCCNC(=O)[C@H](CNC(=O)c2ccc(Cl)s2)NC(=O)[C@H]2CCCN(C2)C(=O)[C@H](Cc2ccccc2)N1 [X F B4 D3 Acid 14] | 0.23 | 0.17 |  |  |  | 
O=C1CCSSCCNC(=O)C(CNC(=O)c2ccc(Cl)cc2)NC(=O)C2CCCN(C2)C(=O)C(Cc2ccccc2)N1 (stereo not shown) [X F B4 D3 Acid 25] |  |  | 0.12 | 0.22 |  | 
O=C(/C=C/c1ccccc1)NC[C@@H]1NC(=O)[C@H]2CCCN(C2)C(=O)[C@H](Cc2ccccc2)NC(=O)CCSSCCNC1=O [X F B4 D3 Acid 91] |  |  |  |  | 0.19 | 0.17
O=C1CCSSCCNC(=O)C2CC(NC(=O)c3ccc(Cl)s3)CN2C(=O)C2CCCN(C2)C(=O)C(Cc2ccccc2)N1 (stereo not shown) [X F B4 D5 Acid 14] | 0.08 | 0.0465 |  |  |  | 
O=C1CCSSCCNC(=O)C2(CCN(C(=O)/C=C/c3ccccc3)CC2)NC(=O)[C@H]2CCCN(C2)C(=O)[C@H](Cc2ccccc2)N1 [X F B4 D6 Acid 91] |  |  |  |  | 0.0563 | -0.00827
O=C1CCSSCCNC(=O)C2CN(C(=O)C=Cc3ccccc3)CCN2C(=O)C2CCCN(C2)C(=O)C(Cc2ccccc2)N1 (stereo not shown) [X F B4 D7 Acid 91] |  |  |  |  | 0.0563 | 0.0168
O=C1CCSSCCNC(=O)C(CNC(=O)c2ccc(Cl)s2)NC(=O)c2cccc(c2)CNC(=O)C(Cc2ccccc2)N1 (stereo not shown) [X F B5 D3 Acid 14] | 0.08 | -0.00432 |  |  |  | 
O=C(/C=C/c1ccccc1)NC[C@@H]1NC(=O)c2cccc(c2)CNC(=O)[C@H](Cc2ccccc2)NC(=O)CCSSCCNC1=O [X F B5 D3 Acid 91] |  |  |  |  | -0.05 | 0.04
O=C1CCSSCCNC(=O)[C@@H]2C[C@H](NC(=O)c3ccc(Cl)cc3)CN2C(=O)c2cccc(c2)CNC(=O)[C@H](Cc2ccccc2)N1 [X F B5 D5 Acid 25] |  |  | 0.0244 | -0.00432 |  | 

Results, then the compound that gave them:

fraction fluorescent probe displaced, Screen (Acid 14) | fraction fluorescent probe displaced, Replicate (Acid 14) | fraction fluorescent probe displaced, Screen (Acid 25) | fraction fluorescent probe displaced, Replicate (Acid 25) | fraction fluorescent probe displaced, Screen (Acid 91) | fraction fluorescent probe displaced, Replicate (Acid 91) | Structure (SMILES)
 |  | 0.22 | 0.10 |  |  | O=C1CCSSCCNC(=O)C2(CCN(C(=O)c3ccc(Cl)cc3)CC2)NC(=O)[C@@H]2CCCN2C(=O)[C@H](Cc2ccccc2)N1 [X F B1 D6 Acid 25] ([Mpa]FP[Api](Benzoyl(4-Cl))-Cysteamide; disulfide 1-C)
 |  | 0.22 | 0.17 |  |  | O=C1CCNC(=O)C(Cc2ccccc2)NC(=O)CCSSCCNC(=O)C(CNC(=O)c2ccc(Cl)cc2)N1 (stereo not shown) [X F B2 D3 Acid 25]
 |  | 0.12 | 0.07 |  |  | O=C1CCSSCCNC(=O)C2CC(NC(=O)c3ccc(Cl)cc3)CN2C(=O)CCNC(=O)C(Cc2ccccc2)N1 (stereo not shown) [X F B2 D5 Acid 25]
0.20 | 0.0465 |  |  |  |  | O=C1CCSSCCNC(=O)C2(CCN(C(=O)c3ccc(Cl)s3)CC2)NC(=O)CCNC(=O)C(Cc2ccccc2)N1 (stereo not shown) [X F B2 D6 Acid 14]
 |  | -0.00813 | -0.03 |  |  | O=C1CCSSCCNC(=O)C2(CCN(C(=O)c3ccc(Cl)cc3)CC2)NC(=O)CCNC(=O)[C@H](Cc2ccccc2)N1 [X F B2 D6 Acid 25]
 |  |  |  | 0.0563 | -0.00827 | O=C1CCSSCCNC(=O)C2(CCN(C(=O)C=Cc3ccccc3)CC2)NC(=O)CCNC(=O)C(Cc2ccccc2)N1 (stereo not shown) [X F B2 D6 Acid 91]
0.17 | 0.10 |  |  |  |  | O=C1CCSSCCNC(=O)C2CN(C(=O)c3ccc(Cl)s3)CCN2C(=O)CCNC(=O)C(Cc2ccccc2)N1 (stereo not shown) [X F B2 D7 Acid 14]
 |  | 0.12 | 0.10 |  |  | O=C1CCSSCCNC(=O)C2CN(C(=O)c3ccc(Cl)cc3)CCN2C(=O)CCNC(=O)[C@H](Cc2ccccc2)N1 (stereo partly shown) [X F B2 D7 Acid 25]
0.08 | 0.20 |  |  |  |  | O=C1CCSSCCNC(=O)C2(CCN(C(=O)c3ccc(Cl)s3)CC2)NC(=O)[C@H]2CCCN(C2)C(=O)[C@H](Cc2ccccc2)N1 [X F B4 D6 Acid 14]
 |  | 0.15 | 0.07 |  |  | O=C1CCSSCCNC(=O)C2(CCN(C(=O)c3ccc(Cl)cc3)CC2)NC(=O)C2CCCN(C2)C(=O)C(Cc2ccccc2)N1 (stereo not shown) [X F B4 D6 Acid 25]
0.11 | 0.10 |  |  |  |  | O=C1CCSSCCNC(=O)C2(CCN(C(=O)c3ccc(Cl)s3)CC2)NC(=O)c2cccc(c2)CNC(=O)C(Cc2ccccc2)N1 (stereo not shown) [X F B5 D6 Acid 14]
 |  | 0.0569 | 0.0465 |  |  | O=C1CCSSCCNC(=O)C2(CCN(C(=O)c3ccc(Cl)cc3)CC2)NC(=O)c2cccc(c2)CNC(=O)[C@H](Cc2ccccc2)N1 [X F B5 D6 Acid 25]
